Measured values as given in patent US12171768B2, “IRAK4 degraders and uses thereof” (priority 2021, dated 2024).

Experiment: Diastereomer interconversion
Assay type: physicochemical
Conditions: in vitro and in vivo

In the case of Cn1c(=O)n([C@@H]2CCC(=O)NC2=O)c2cccc(C#CCOC3CCN(C[C@H]4CC[C@H](n5cc(NC(=O)c6cnn7ccc(N8C[C@H]9C[C@@H]8CO9)nc67)c(C(F)F)n5)CC4)CC3)c21 [Compound C, 5-((1R,4R)-2-oxa-5-azabicyclo[2.2.1]heptan-5-yl)-N-(3-(difluoromethyl)-1-((1r,4R)-4-((4-((3-(1-((R)-2,6-dioxopiperidin-3-yl)-3-methyl-2-oxo-2,3-dihydro-1H-benzo[d]imidazol-4-yl)prop-2-yn-1-yl)oxy)piperidin-1-yl)methyl)cyclohexyl)-1H-pyrazol-4-yl)pyrazolo[1,5-a]pyrimidine-3-carboxamide], the Diastereomer interconversion is reported as “interconvert rapidly”.
For Cn1c(=O)n([C@H]2CCC(=O)NC2=O)c2cccc(C#CCOC3CCN(C[C@H]4CC[C@H](n5cc(NC(=O)c6cnn7ccc(N8C[C@H]9C[C@@H]8CO9)nc67)c(C(F)F)n5)CC4)CC3)c21 [Compound B, 5-((1R,4R)-2-oxa-5-azabicyclo[2.2.1]heptan-5-yl)-N-(3-(difluoromethyl)-1-((1r,4R)-4-((4-((3-(1-((S)-2,6-dioxopiperidin-3-yl)-3-methyl-2-oxo-2,3-dihydro-1H-benzo[d]imidazol-4-yl)prop-2-yn-1-yl)oxy)piperidin-1-yl)methyl)cyclohexyl)-1H-pyrazol-4-yl)pyrazolo[1,5-a]pyrimidine-3-carboxamide], the Diastereomer interconversion was “interconvert rapidly”.
